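Dose response: 5 concentrations. Exposure: 48 h. Format: 96-well plates. Endpoint: linear interpolation; highest concentration if not reached. GI50 is the concentration that inhibits growth by half.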 Calls of active or inactive are those of the source. Cut-off read from the data, not from the text of the source: active = GI50 up to about 1.1 µM and inactive = higher.
Tests used:
Test in all cases: NCI-60 cell line screen, 48 h
[1] = tested on: 786-0
[2] = tested on: A498
[3] = tested on: A549
[4] = tested on: ACHN
[5] = tested on: COLO 205
[6] = tested on: DU-145
[7] = tested on: EKVX
[8] = tested on: HCC 2998
[9] = tested on: HCT-116
[10] = tested on: HCT-15
[11] = tested on: HL-60
[12] = tested on: HOP-62
[13] = tested on: HOP-92
[14] = tested on: HT-29
[15] = tested on: Hs-578T
[16] = tested on: IGROV-1
[17] = tested on: K562
[18] = tested on: KM12
[19] = tested on: LOX IMVI
[20] = tested on: M14
[21] = tested on: MCF7
[22] = tested on: MDA-MB-231
[23] = tested on: MDA-MB-435
[24] = tested on: MDA-N
[25] = tested on: MOLT-4
[26] = tested on: Malme-3M
[27] = tested on: NCI-H226
[28] = tested on: NCI-H23
[29] = tested on: NCI-H460
[30] = tested on: NCI-H522
[31] = tested on: NCI/ADR-RES
[32] = tested on: OVCAR-3
[33] = tested on: OVCAR-4
[34] = tested on: OVCAR-5
[35] = tested on: OVCAR-8
[36] = tested on: PC-3
[37] = tested on: RPMI-8226
[38] = tested on: RXF 393
[39] = tested on: SF-268
[40] = tested on: SF-295
[41] = tested on: SF-539
[42] = tested on: SK-MEL-28
[43] = tested on: SK-MEL-2
[44] = tested on: SK-MEL-5
[45] = tested on: SK-OV-3
[46] = tested on: SN12C
[47] = tested on: SNB-19
[48] = tested on: SR
[49] = tested on: SW-620
[50] = tested on: T47D
[51] = tested on: TK-10
[52] = tested on: U-251
[53] = tested on: UACC-257
[54] = tested on: UACC-62
[55] = tested on: UO-31
[56] = tested on: BT-549
[57] = tested on: CAKI-1
[58] = tested on: CCRF-CEM
[59] = tested on: SNB-75

In the case of `C#C[C@@]1(O)CCCC2=CC3(CC[C@]21C)SCCS3`, the GI50 [1] is reported as > 100 µM (inactive), the GI50 [2] is reported as > 100 µM (inactive) and the GI50 [3] is reported as > 100 µM (inactive). For the same compound, the GI50 [4] was > 100 µM (inactive), the GI50 [5] was > 100 µM (inactive) and the GI50 [6] was > 100 µM (inactive). The GI50 [7] was > 100 µM (inactive), the GI50 [8] was > 100 µM (inactive) and the GI50 [9] was > 100 µM (inactive). The GI50 [10] was > 100 µM, the GI50 [11] was 45.6 µM (inactive) and the GI50 [12] was > 100 µM (inactive). The GI50 [13] was > 100 µM (inactive), the GI50 [14] was > 100 µM (inactive) and the GI50 [15] was > 100 µM (inactive). The GI50 [16] was > 100 µM (inactive), the GI50 [17] was > 100 µM (inactive) and the GI50 [18] was > 100 µM (inactive). For the same compound, the GI50 [19] was > 100 µM (inactive), the GI50 [20] was > 100 µM (inactive) and the GI50 [21] was > 100 µM (inactive). The GI50 [22] was > 100 µM (inactive), the GI50 [23] was > 100 µM (inactive) and the GI50 [24] was > 100 µM (inactive). The GI50 [25] was > 100 µM (inactive), the GI50 [26] was > 100 µM (inactive) and the GI50 [27] was > 100 µM (inactive). For the same compound, the GI50 [28] was > 100 µM (inactive), the GI50 [29] was > 100 µM (inactive) and the GI50 [30] was > 100 µM (inactive). For the same compound, the GI50 [31] was > 100 µM (inactive), the GI50 [32] was > 100 µM (inactive) and the GI50 [33] was > 100 µM (inactive). The GI50 [34] was > 100 µM (inactive), the GI50 [35] was > 100 µM (inactive) and the GI50 [36] was > 100 µM (inactive). The GI50 [37] was > 100 µM (inactive), the GI50 [38] was > 100 µM (inactive) and the GI50 [39] was > 100 µM (inactive). For the same compound, the GI50 [40] was > 100 µM (inactive), the GI50 [41] was > 100 µM (inactive) and the GI50 [42] was > 100 µM (inactive). The GI50 [43] was > 100 µM (inactive), the GI50 [44] was > 100 µM (inactive) and the GI50 [45] was > 100 µM (inactive). For the same compound, the GI50 [46] was > 100 µM (inactive), the GI50 [47] was > 100 µM (inactive) and the GI50 [48] was > 100 µM (inactive). For the same compound, the GI50 [49] was > 100 µM (inactive), the GI50 [50] was > 100 µM (inactive) and the GI50 [51] was > 100 µM (inactive). For the same compound, the GI50 [52] was > 100 µM (inactive), the GI50 [53] was > 100 µM (inactive) and the GI50 [54] was > 100 µM (inactive). For the same compound, the GI50 [55] was > 100 µM (inactive).
With `COc1ccc2c(c1)C(N)CC2=O` (stereo not drawn) the GI50 [1] was > 100 µM (inactive), the GI50 [2] was > 100 µM (inactive) and the GI50 [3] was 19.1 µM (inactive). The GI50 [4] was > 100 µM (inactive), the GI50 [56] was > 100 µM (inactive) and the GI50 [57] was > 100 µM (inactive). For the same compound, the GI50 [58] was > 100 µM (inactive), the GI50 [5] was > 100 µM (inactive) and the GI50 [6] was > 100 µM (inactive). For the same compound, the GI50 [7] was > 100 µM (inactive), the GI50 [8] was > 100 µM (inactive) and the GI50 [9] was > 100 µM (inactive). For the same compound, the GI50 [10] was > 100 µM, the GI50 [12] was > 100 µM (inactive) and the GI50 [13] was > 100 µM (inactive). For the same compound, the GI50 [14] was > 100 µM (inactive), the GI50 [15] was > 100 µM (inactive) and the GI50 [16] was > 100 µM (inactive). The GI50 [17] was > 100 µM (inactive), the GI50 [18] was > 100 µM (inactive) and the GI50 [20] was > 100 µM (inactive). For the same compound, the GI50 [21] was > 100 µM (inactive), the GI50 [22] was > 100 µM (inactive) and the GI50 [23] was > 100 µM (inactive). The GI50 [25] was > 100 µM (inactive), the GI50 [27] was > 100 µM (inactive) and the GI50 [28] was > 100 µM (inactive). For the same compound, the GI50 [30] was > 100 µM (inactive), the GI50 [31] was > 100 µM (inactive) and the GI50 [32] was > 100 µM (inactive). For the same compound, the GI50 [33] was > 100 µM (inactive), the GI50 [34] was > 100 µM (inactive) and the GI50 [35] was > 100 µM (inactive). The GI50 [36] was 18.9 µM (inactive), the GI50 [37] was > 100 µM (inactive) and the GI50 [38] was 19 µM (inactive). For the same compound, the GI50 [39] was > 100 µM (inactive), the GI50 [40] was > 100 µM (inactive) and the GI50 [41] was > 100 µM (inactive). The GI50 [42] was > 100 µM (inactive), the GI50 [43] was 27 µM (inactive) and the GI50 [44] was > 100 µM (inactive). For the same compound, the GI50 [45] was > 100 µM (inactive), the GI50 [46] was > 100 µM (inactive) and the GI50 [47] was > 100 µM (inactive). The GI50 [59] was > 100 µM (inactive), the GI50 [49] was > 100 µM (inactive) and the GI50 [50] was > 100 µM (inactive). For the same compound, the GI50 [51] was > 100 µM (inactive), the GI50 [52] was > 100 µM (inactive) and the GI50 [53] was > 100 µM (inactive). The GI50 [54] was > 100 µM (inactive) and the GI50 [55] was > 100 µM (inactive).

— ChEMBL document CHEMBL1201862, “PubChem BioAssay data set” (2004)
